System: 633275-114-R-J1-PDC complex spheroids, viability
Test: Anticancer human tumor 633275-114-R-J1-PDC patient-derived endometrial adenocarcinoma cell line growth inhibition [GQUAD]
Conditions: for IC50: curve of first compound; for viability, T/C: stronger effect = lower value; active means viability on the fitted dose curve at most 10% of control; inactive means the rest
Source text: DNA G-quadruplex Stabilizer Agents in Combinations in Complex Spheroids
A high-throughput screen of multi-cell type tumor spheroids was designed to identify active combinations of DNA G-quadruplex stabilizer agents and targeted small molecules. Complex spheroids include a stromal component modeled by human endothelial cells (HUVEC) and fibroblasts modeled by human mesenchymal stem cells (MSCs). The concentration ranges selected for each drug and investigational agent were based upon clinically achievable concentrations if the clinical Cmax of the agent was known.
Compounds. The drugs and investigational agents: pidnarulex (CX-5461; NSC782164), APTO-253 (NSC789042), BRACO-19 (NSC847499), peposertib (NSC802822), ceralasertib (NSC780249), elimusertib (NSC800525), camonsertib (NSC841442), AZD-1390 (NSC803789), olaparib (NSC753686), talazoparib (NSC767125), ART-558 (NSC835418), sotorasib (NSC818433), MRTX-1133 (NSC836407), SN-38 (NSC673596), topotecan (NSC609699), etoposide (NSC141540), doxorubicin (NSC123127), gemcitabine (NSC613327), 5-fluorouracil (NSC19893), paclitaxel (NSC125973), vemurafenib (NSC761431), panobinostat (NSC761190), R-306465 (JNJ-16241199; NSC773264), adavosertib (NSC754352), TP-3654 (NSC805149), carboplatin (NSC241240), KSQ-4279 (NSC840948), and staurosporine (NSC755774) were obtained from the National Cancer Institute (NCI) Developmental Therapeutics Program Chemical Repository (34). The FDA-approved anticancer drug set is available from the NCI Developmental Therapeutics Program. […] The stock solutions were prepared in dimethyl sulfoxide (DMSO, Sigma-Aldrich, St. Louis, MO, cat. D2650) at 800-fold the tested concentration and stored at -70 degrees C prior to their use. All drugs and investigational agents were tested over a range starting from a high concentration at or near the clinical Cmax and decreasing in half-log increments. If the clinical Cmax for an agent had not been determined, the highest concentration tested was 10 microM.
2.3 Cell Culture. All cells were maintained in an incubator at 37 degrees C and 5% CO2 with 95% humidity. The PDC lines were cultured according to standard operating procedures established by the NCI PDMR. All PDCs were thawed and cultured in Matrigel-coated flasks prepared with a working solution of 1X Ham's F-12 nutrient mix, without supplementation (Invitrogen, cat. 11765054), 100 U/mL penicillin-streptomycin (Invitrogen, cat. 15140122), and 2.5% Matrigel (Corning Inc., cat. 354248) for the first three passages. The 857933-349-R-J2-PDC line was cultured in 6C/Colon 1B media, which includes advanced DMEM/F-12 (Thermo Fisher Scientific, cat. 12634028), 10 mM HEPES (Thermo Fisher Scientific, cat. 15630080), 1X GlutaMAX supplement (Thermo Fisher Scientific, cat. 35050061), 0.1 mg/mL primocin (InvivoGen, cat. ant-pm-2), 10% defined fetal bovine serum, heat inactivated (HyClone Laboratories Inc., cat. SH30070.03HI), 50% L-WRN conditioned media (ATCC, cat. CRL-3276), 1.25 mM N-Acetyl-L-cysteine (Sigma-Aldrich, cat. A9165), 10 mM nicotinamide (Sigma-Aldrich, cat. N0636), 1X B-27 supplement (Thermo Fisher Scientific, cat. 17504044), 1X N-2 supplement (Thermo Fisher Scientific, cat. 17502048), 10 microM Y-27632 dihydrochloride (Tocris Bioscience, cat. 1254), and 50 ng/mL human EGF recombinant protein (Thermo Fisher Scientific, cat. PHG0311). The 485176-168-R4-J1-PDC line was cultured in Panc media, which includes all 6C/Colon 1B media components plus 100 ng/mL human FGF-10 (Thermo Fisher Scientific, cat. 100-26), 500 nM SB-431542 (Selleckchem, cat. S1067), and gastrin (Tocris, cat. 3006).
[…]
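Further: spheroids exposed to the agents for seven days.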
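Wherever viability, T/C is given: percent of DMSO vehicle control viability which is 100%.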

O=c1[nH]cc(F)c(=O)[nH]1 + CN(C)c1ccc(Nc2c3ccc(NC(=O)CCN4CCCC4)cc3nc3cc(NC(=O)CCN4CCCC4)ccc23)cc1
> 10 µM: IC50 (second compound 0.0316 µM) | IC50 (second compound 0.1 µM) | IC50 (second compound 0.316 µM) | IC50 (second compound 1 µM) | IC50 (second compound 3.16 µM)
< 0.0316 µM: IC50 (second compound 10 µM)
inactive: viability, T/C (second compound 0.0316 µM, first compound 0.0316 µM) 112% | viability, T/C (second compound 0.0316 µM, first compound 0.1 µM) 96% | viability, T/C (second compound 0.0316 µM, first compound 0.316 µM) 96.9% | viability, T/C (second compound 0.0316 µM, first compound 1 µM) 88.1% | viability, T/C (second compound 0.0316 µM, first compound 3.16 µM) 88.5% | viability, T/C (second compound 0.0316 µM, first compound 10 µM) 66% | viability, T/C (second compound 0.1 µM, first compound 0.0316 µM) 97.6% | viability, T/C (second compound 0.1 µM, first compound 0.1 µM) 98.8% | viability, T/C (second compound 0.1 µM, first compound 0.316 µM) 91.4% | viability, T/C (second compound 0.1 µM, first compound 1 µM) 96.6% | viability, T/C (second compound 0.1 µM, first compound 3.16 µM) 88.4% | viability, T/C (second compound 0.1 µM, first compound 10 µM) 76.5% | viability, T/C (second compound 0.316 µM, first compound 0.0316 µM) 86.9% | viability, T/C (second compound 0.316 µM, first compound 0.1 µM) 90.1% | viability, T/C (second compound 0.316 µM, first compound 0.316 µM) 97.3% | viability, T/C (second compound 0.316 µM, first compound 1 µM) 100% | viability, T/C (second compound 0.316 µM, first compound 3.16 µM) 86.2% | viability, T/C (second compound 0.316 µM, first compound 10 µM) 66.2% | viability, T/C (second compound 1 µM, first compound 0.0316 µM) 79.8% | viability, T/C (second compound 1 µM, first compound 0.1 µM) 91.8% | viability, T/C (second compound 1 µM, first compound 0.316 µM) 98.9% | viability, T/C (second compound 1 µM, first compound 1 µM) 99% | viability, T/C (second compound 1 µM, first compound 3.16 µM) 84.9% | viability, T/C (second compound 1 µM, first compound 10 µM) 64.3% | viability, T/C (second compound 3.16 µM, first compound 0.0316 µM) 83.2% | viability, T/C (second compound 3.16 µM, first compound 0.1 µM) 85.9% | viability, T/C (second compound 3.16 µM, first compound 0.316 µM) 85.2% | viability, T/C (second compound 3.16 µM, first compound 1 µM) 74% | viability, T/C (second compound 3.16 µM, first compound 3.16 µM) 77.9% | viability, T/C (second compound 3.16 µM, first compound 10 µM) 56.8% | viability, T/C (second compound 10 µM, first compound 0.0316 µM) 36% | viability, T/C (second compound 10 µM, first compound 0.1 µM) 38.3% | viability, T/C (second compound 10 µM, first compound 0.316 µM) 30.2% | viability, T/C (second compound 10 µM, first compound 1 µM) 33.1% | viability, T/C (second compound 10 µM, first compound 3.16 µM) 32.2% | viability, T/C (second compound 10 µM, first compound 10 µM) 26.4%
